Reference: patent US4895973A, “Substituted glutaric acid lactones in the treatment of hyperlipidemia” (G. D. Searle & Company, priority 1988, dated 1990)

Molecular target: T1, rat liver microsomal HMGCoA reductase (Rattus norvegicus, UniProt P51639)
T1 construct: rat liver microsomal HMGCoA reductase; from tissue; host or cells: rat liver microsomes
T1 sequence (P51639 1-887): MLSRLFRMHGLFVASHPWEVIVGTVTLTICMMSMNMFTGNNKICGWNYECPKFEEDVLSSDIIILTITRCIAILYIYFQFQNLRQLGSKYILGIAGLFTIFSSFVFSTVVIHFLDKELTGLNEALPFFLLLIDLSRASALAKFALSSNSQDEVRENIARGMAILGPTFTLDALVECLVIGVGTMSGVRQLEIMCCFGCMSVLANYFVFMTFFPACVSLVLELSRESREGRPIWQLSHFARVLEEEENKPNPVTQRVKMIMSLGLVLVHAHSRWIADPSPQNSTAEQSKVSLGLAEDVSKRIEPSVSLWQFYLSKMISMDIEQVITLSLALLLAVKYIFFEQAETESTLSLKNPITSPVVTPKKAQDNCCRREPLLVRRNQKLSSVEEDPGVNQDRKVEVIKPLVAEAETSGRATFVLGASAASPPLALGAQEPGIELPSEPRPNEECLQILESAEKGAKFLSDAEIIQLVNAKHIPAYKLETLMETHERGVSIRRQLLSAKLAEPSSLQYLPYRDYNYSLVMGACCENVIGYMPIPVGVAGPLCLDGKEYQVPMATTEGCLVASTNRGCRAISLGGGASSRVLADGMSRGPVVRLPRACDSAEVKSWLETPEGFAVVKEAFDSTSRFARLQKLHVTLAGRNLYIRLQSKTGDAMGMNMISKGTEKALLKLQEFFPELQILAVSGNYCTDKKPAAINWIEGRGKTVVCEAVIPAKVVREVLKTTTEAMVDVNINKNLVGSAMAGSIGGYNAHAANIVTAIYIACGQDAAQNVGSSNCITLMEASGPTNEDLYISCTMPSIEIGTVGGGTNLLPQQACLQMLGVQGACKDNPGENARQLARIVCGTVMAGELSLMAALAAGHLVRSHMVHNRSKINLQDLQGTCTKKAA
Experiment: in vitro inhibition of rat liver microsomal HMGCoA reductase
Format: biochemical
Details: 40 μM 14C-HMGCoA, 15 min at 37° C., pH7.2
Experimental: The IC50 is defined as the concentration required to inhibit the enzyme by 50% of control.
Triplicate samples are preincubated for 15 min. at 37° C. in a volume of 1 ml. […] Mevalonic acid is extracted with ether and the % ^14 C-HMGCoA incorporation determined for concurrent control and test reaction systems. Testing is done (first) with a range finding assay followed by a 4 or 5 point assay to find the IC50 value.

CC[C@H](C)C(=O)O[C@H]1CCC=C2C=C[C@H](C)[C@H](CC[C@@H]3C[C@@H](O)CC(=O)O3)[C@H]21 [Compactin]
IC50: 1000 nM
